The text below walks through data of patent publication US7781187B2, “Fluorescent dyes” (Corning Incorporated, priority 2005, dated 2010).

Series [1] in a line: Fluorescence excitation and emission spectra of the dyes in buffer (Fluorolog-3 spectrometer). In kind it is physicochemical. Further details: key to Excitation max. / Emission max.: peak wavelengths in nm. The text has this: The fluorescence of the exemplary fluorescent dyes in buffer was examined on a Fluorolog®-3 (a trademark of Spex Industries Inc.) spectrometer. The fluorescent dyes of the present invention have large Stokes shifts; the excitation and emission maxima are close to or greater than 100 nm apart. Peak wavelengths are tabulated in Table 2 along with two commercially available fluorescent dyes, TOTO-1TM and YO-[…]TM (trademarks of Molecular Probes, Inc.). The Stokes shifts of TOTO-1TM and YO-[…]TM are small in comparison to the dyes of the present invention.

Series [2] concerns dsDNA (20 mer). In words: Emission intensity of dye with equimolar dsDNA relative to free dye (fluorescence spectrometer). The settings on record: for direction of change in emission intensity upon addition of DNA / effect of ssDNA and dsDNA on dye emission: FIG. 2; for Free dye rel. to dsDNA: equimolar dsDNA (20 mer), emission intensity ratio. The text has this:
(§1) FIG. 2 illustrates the effect of ssDNA and dsDNA on dye emission. […] All the dyes reported here show a larger change in emission intensity upon the addition of dsDNA than they do upon the addition of ssDNA; in some cases (GA, 95) this change is positive, in others it is negative (HE, HE-HE, FI).
Emission intensities of the fluorescent dyes of the present invention and TOTO-1™ at 1×10^−5 M in 1×PCR buffer were compared in the absence of DNA (free dye emission) and in the presence of equimolar dsDNA or ssDNA (20 mer) on the fluorescence spectrometer. […]

Series [3] deals with dsDNA. The series can be described thus: Titration of dyes with dsDNA in 96-well microplate (sensitivity and dynamic range, SpectraMax Gemini plate reader). On the procedure: The fluorescent dyes shown in Table 5 were titrated with dsDNA in order to determine the sensitivity (lowest detection limit) and dynamic range. A 96-well polystyrene Corning Costar® (a trademark of Corning Incorporated) microwell plate was loaded with 100 μL/well of dye mixed with various levels of dsDNA and incubated at room temperature for 2 hours allowing the mixture to equillibrate. The dye fluorescence was then measured on a SpectraMax® (a trademark of Molecular Devices Corp.) Gemini Plate-reader. Relative fluorescence units (RFU) were then plotted against DNA concentration in pg/μL.

In series [4] the test system is dsDNA. The series can be described thus: ssDNA/dsDNA selectivity in the plate reader assay (FIG. 3). From the text:
FIG. 3 illustrates the ssDNA/dsDNA selectivity of the fluorescent dyes of the present invention, HE-HE and 95, versus the commercially available fluorescent dye TOTO-1™ in the plate reader assay. […] By learning more about the binding modes of the disclosed dyes, it should be possible to design and synthesize members of the family optimized for dsDNA detection.

Series [5] relates to ssDNA (20 mer). The series can be described thus: Emission intensity of dye with equimolar ssDNA relative to free dye (fluorescence spectrometer). The settings on record: dye 1×10^−5 M in 1×PCR buffer; for change of the emission intensity in the presence of ssDNA: equimolar ssDNA; for Free dye rel. to ssDNA: equimolar ssDNA (20 mer), emission intensity ratio.
Excerpt: as §1
Emission intensities of the fluorescent dyes of the present invention and TOTO-1™ at 1×10^−5 M in 1×PCR buffer were compared in the absence of DNA (free dye emission) and in the presence of equimolar dsDNA or ssDNA (20 mer) on the fluorescence spectrometer.
The fluorescent dyes of the present invention have a large Stokes shift allowing the use of less sophisticated equipment for the detection of the emission intensity.

Series [6] is described as follows: Stokes shift of MH dyes (FIG. 4). In kind it is physicochemical. From the text:
Unlike Fluorescein and other commercially available dyes whose peak excitation and emission wavelengths are extremely close the MH dyes have ˜200 nm between peaks.

Series [7] has as its system double-stranded DNA (dsDNA). Conditions: on a microplate reader; cited from earlier work.
For series [8] the following is noted: commercial dye data from Molecular Probes catalog; cited from earlier work.
[9] abbreviates: dye 1×10^−5 M in 1×PCR buffer, equimolar dsDNA.

Read-outs that look alike come from different tables or passages of the source.

For the compound `C[n+]1c(/C=C/c2ccc(N(CCO)CCO)cc2)sc2ccccc21` [Dye 95], in series [1], the Emission max. is 585, the Excitation max. is 500 and the Stokes shift was found to be 85 nm. The “direction of change in emission intensity upon addition of DNA” value (from here on “direction of change”) in series [2] is on record as “positive”. Also, in series [3], the “dynamic range compared with TOTO-1™” value was “larger dynamic range” and the “sensitivity compared with TOTO-1™” value is listed as “comparable”. Besides, the ssDNA/dsDNA selectivity result in series [4] is recorded as “significant preference for dsDNA”.

With `C[n+]1c(/C=C/c2ccc(SCCO)cc2)sc2ccccc21` [FI], in series [1], the Emission max. was determined as 546, the Excitation max. is reported as 382 and the Stokes shift is listed as 164 nm. In series [2], the “direction of change” value was “negative”; the “effect of ssDNA and dsDNA on dye emission” value was “most pronounced”. For the same compound, the “change of the emission intensity in the presence of dsDNA” value in series [2] (setting [9]) came out at 28.7 times. Further, in series [2] (dye 1×10^−5 M in 1×PCR buffer), the “Free dye rel. to dsDNA” value is given as 28.7. Also, in series [5], the “change of the emission intensity in the presence of ssDNA” value was “very little change” and the “Free dye rel. to ssDNA” value is listed as 0.98.

Consider `CN(CCO)c1ccc(/C=C/c2sc3ccccc3[n+]2C)cc1` [GA], for which, in series [1], the Emission max. was 587, the Excitation max. is listed as 512 and the Stokes shift is 75 nm. The “direction of change” value in series [2] was “positive”.

For the compound `C[n+]1c(/C=C/c2ccc(OCCOCCOCCOc3ccc(/C=C/c4sc5ccccc5[n+]4C)cc3)cc2)sc2ccccc21` [HE-HE], in series [1], the Emission max. is given as 616, the Excitation max. amounted to 400 and the Stokes shift turned out to be 216 nm. In series [2], the “direction of change” value is listed as “negative”; the “effect of ssDNA and dsDNA on dye emission” value was “most pronounced”. Moreover, in series [2] (setting [9]), the “change of the emission intensity in the presence of dsDNA” value stood at 13.5 times. Further, the “Free dye rel. to dsDNA” value in series [2] (dye 1×10^−5 M in 1×PCR buffer) was 13.5. For the same compound, in series [3], the “dynamic range compared with TOTO-1™” value is on record as “greater dynamic range” and the “sensitivity compared with TOTO-1™” value is recorded as “more sensitive”. Also, in series [4], the ssDNA/dsDNA selectivity result is “only slightly more sensitive towards dsDNA than ssDNA”. In addition, the “Free dye rel. to ssDNA” value in series [5] is 1.19.

Regarding `COc1ccc(/C=C/c2sc3ccccc3[n+]2C)cc1` [HE], in series [1], the Emission max. stood at 500, the Excitation max. is reported as 385 and the Stokes shift worked out at 115 nm. In addition, the “direction of change” value in series [2] was “negative”.

For `CN(C)c1ccc(/C=C/c2ccc(C(=O)[O-])s2)cc1.[Li+]` [MH1], in series [6], the “Stokes shift (between peak excitation and emission wavelengths)” value is listed as about 200 nm.

With `O=C([O-])c1ccc(-c2ccc(/C=C/c3ccc(N(CCO)CCO)cc3)s2)s1.[Na+]` [MH3], the “Stokes shift (between peak excitation and emission wavelengths)” value in series [6] is listed as about 200 nm.

On to `CN(C)CCCN(CCCN(C)C)c1cc(C=C2Sc3ccccc3N2C)c2ccccc2[n+]1-c1ccccc1` [PicoGreen™], for which, in series [7], the dynamic range was ~3 orders of magnitude and the “sensitivity for double-stranded DNA (dsDNA)” value is reported as 250 pg/mL.

Turning to `CN1/C(=C/c2cc[n+](CCC[N+](C)(C)CCC[N+](C)(C)CCC[n+]3ccc(/C=C4\Sc5ccccc5N4C)c4ccccc43)c3ccccc23)Sc2ccccc21.[I-].[I-].[I-].[I-]` [TOTO-1™, reference compound], the “change of the emission intensity upon interaction with dsDNA” value in series [2] (setting [9]) was ~3 orders of magnitude. Also, the “Free dye rel. to dsDNA” value in series [2] (dye 1×10^−5 M in 1×PCR buffer) turned out to be 0.003. The ssDNA/dsDNA selectivity result in series [4] is given as “superior selectivity”. Also, in series [8], the Emission max. is on record as 533, the Excitation max. is listed as 514 and the Stokes shift is listed as 19 nm. Also, in series [5], the “change of the emission intensity in the presence of ssDNA” value is listed as “very little change” and the “Free dye rel. to ssDNA” value is 0.95.

For the compound `CN1C(=CC=Cc2cc[n+](CCC[N+](C)(C)C)c3ccccc23)Oc2ccccc21.[I-].[I-]` [YO-PRO-3 ™], in series [8], the Emission max. is on record as 631, the Excitation max. is 612 and the Stokes shift is 19 nm.
